The values below come from patent publication US12122816B2, “Long acting peptide tyrosine tyrosine (PYY) analogs and methods of use” (Intarcia Therapeutics, Inc., priority 2020, dated 2024).

Broadly, the EC50 is the concentration giving half of the maximal effect.

Starred links: 1 amine or outer side, 2 acyl side, 3 side chain; linkers in the order of their positions; H or OH if unused. Residues, ends and D or L forms follow the SMILES beside them. Groups on a side chain read outwards from the residue. *: point of attachment. C20 diacid = O=C(O)CCCCCCCCCCCCCCCCCCC(=O)*; γGlu = O=C(O)[C@H](CCC(=O)[*:2])N[*:1]

Assay in all cases: NPY receptor functional assay (cAMP, HEK-CNG cells, ACTOne membrane potential dye)
Format in all cases: cell-based

One assay addresses human Y4 receptor (Homo sapiens, UniProt P50391). To be noted: standard PP, species (human or rat) not given. An outline of the steps: (§1)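 HEK-CNG cells stably expressing each human receptor; peptides added in triplicate for 50 minutes at room temperature, with agonism read as decreased isoproterenol-induced membrane potential dye signal (final/initial read).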
For a further assay, the target named is T1, human Y2 receptor (Homo sapiens, UniProt P49146).
T1 sequence (P49146 1-381): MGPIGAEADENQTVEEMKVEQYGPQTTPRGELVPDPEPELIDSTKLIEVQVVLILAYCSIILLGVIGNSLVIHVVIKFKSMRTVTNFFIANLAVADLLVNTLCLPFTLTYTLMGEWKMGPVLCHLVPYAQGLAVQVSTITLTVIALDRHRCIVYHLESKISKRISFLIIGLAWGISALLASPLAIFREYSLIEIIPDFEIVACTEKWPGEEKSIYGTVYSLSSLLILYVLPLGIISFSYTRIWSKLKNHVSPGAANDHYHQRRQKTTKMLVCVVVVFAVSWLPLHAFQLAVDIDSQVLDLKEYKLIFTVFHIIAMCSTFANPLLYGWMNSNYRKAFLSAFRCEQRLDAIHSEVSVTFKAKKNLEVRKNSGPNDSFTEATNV
To be noted: NPY2R pEC50, HEK-CNG cells; standard PYY(3-36); species (human or rat) not given. The gist of the method:
as §1

Another assay has as its target T2, human Y5 receptor (Homo sapiens, UniProt Q15761).
T2 sequence (Q15761 1-445): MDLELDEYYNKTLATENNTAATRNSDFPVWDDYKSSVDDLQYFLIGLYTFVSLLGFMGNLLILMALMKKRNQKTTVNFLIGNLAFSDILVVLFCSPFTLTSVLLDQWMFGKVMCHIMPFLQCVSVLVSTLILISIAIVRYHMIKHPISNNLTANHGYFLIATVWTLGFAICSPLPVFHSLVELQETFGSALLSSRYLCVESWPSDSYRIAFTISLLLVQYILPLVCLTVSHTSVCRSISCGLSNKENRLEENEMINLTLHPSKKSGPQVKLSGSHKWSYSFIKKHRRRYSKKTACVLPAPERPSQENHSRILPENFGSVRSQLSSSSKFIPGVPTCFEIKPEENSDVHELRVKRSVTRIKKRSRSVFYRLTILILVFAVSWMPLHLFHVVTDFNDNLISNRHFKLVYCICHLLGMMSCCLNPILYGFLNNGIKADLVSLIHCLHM
To be noted: NPY5R pEC50, HEK-CNG cells; standard NPY; species (human or rat) not given. An outline of the steps: as §1

human Y4 receptor, sequence (P50391 whole entry): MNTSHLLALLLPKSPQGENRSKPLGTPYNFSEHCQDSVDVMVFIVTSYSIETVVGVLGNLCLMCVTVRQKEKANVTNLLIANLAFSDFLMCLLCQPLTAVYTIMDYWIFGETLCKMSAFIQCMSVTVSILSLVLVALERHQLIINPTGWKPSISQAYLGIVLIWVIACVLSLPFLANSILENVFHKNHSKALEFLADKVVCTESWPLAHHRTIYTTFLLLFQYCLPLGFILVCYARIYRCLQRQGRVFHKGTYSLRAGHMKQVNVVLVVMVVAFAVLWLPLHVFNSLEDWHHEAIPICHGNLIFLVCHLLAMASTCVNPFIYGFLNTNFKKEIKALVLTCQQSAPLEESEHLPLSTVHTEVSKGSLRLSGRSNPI

In the case of `CC(C)C[C@H](NC(=O)[C@H](Cc1ccc(O)cc1)NC(=O)[C@H](Cc1c[nH]cn1)NC(=O)[C@H](CCCNC(=N)N)NC(=O)[C@H](C)NC(=O)[C@H](CC(=O)O)NC(=O)[C@H](C)NC(=O)[C@H](Cc1ccc(O)cc1)NC(=O)[C@H](Cc1ccc(O)cc1)NC(=O)[C@H](CCCNC(=N)N)NC(=O)[C@H](CC(N)=O)NC(=O)[C@H](Cc1c[nH]c2ccccc12)NC(=O)[C@H](CCC(=O)O)NC(=O)[C@H](CCC(=O)O)NC(=O)[C@@H]1CCCN1C(=O)[C@H](CO)NC(=O)[C@H](C)NC(=O)[C@H](CC(=O)O)NC(=O)[C@H](CCCCN)NC(=O)CNC(=O)[C@@H]1CCCN1C(=O)[C@H](C)NC(=O)[C@H](CCC(=O)O)NC(=O)[C@@H]1CCCN1C(=O)[C@H](CCCCNC(=O)CC[C@H](NC(=O)CC[C@H](NC(=O)CCCCCCCCCCCCCCCCCCC(=O)O)C(=O)O)C(=O)O)NC(=O)[C@@H]1CCCN1)C(=O)N[C@@H](CC(N)=O)C(=O)N[C@@H](Cc1c[nH]c2ccccc12)C(=O)N[C@@H](CC(C)C)C(=O)N[C@H](C(=O)N[C@@H](CCCNC(=N)N)C(=O)N[C@@H](CCC(N)=O)C(=O)N[C@@H](CCCNC(=N)N)C(=O)N(C)[C@@H](Cc1ccc(O)cc1)C(N)=O)[C@@H](C)O` [Compound A5], at human Y4 receptor, the “NPY4R pEC50” value is “inactive”. In addition, the figures for the EC50 at human Y2 receptor and on human Y5 receptor were 20 nM and 10 nM, respectively.
As to `CC(C)C[C@H](NC(=O)[C@H](CC(=O)O)NC(=O)[C@H](C)NC(=O)[C@H](Cc1ccc(O)cc1)NC(=O)[C@H](Cc1ccc(O)cc1)NC(=O)[C@H](CCCNC(=N)N)NC(=O)[C@H](CCCCNC(=O)CC[C@H](NC(=O)CC[C@H](NC(=O)CCCCCCCCCCCCCCCCCCC(=O)O)C(=O)O)C(=O)O)NC(=O)[C@H](Cc1c[nH]c2ccccc12)NC(=O)[C@H](CCC(=O)O)NC(=O)[C@H](CCC(=O)O)NC(=O)[C@@H]1CCCN1C(=O)[C@H](CO)NC(=O)[C@H](C)NC(=O)[C@H](CC(=O)O)NC(=O)[C@H](CCCCN)NC(=O)CNC(=O)[C@@H]1CCCN1C(=O)[C@H](C)NC(=O)[C@H](CCC(=O)O)NC(=O)[C@@H]1CCCN1C(=O)[C@H](CCCCN)NC(=O)[C@@H]1CCCN1)C(=O)N[C@@H](CCCNC(=N)N)C(=O)N[C@@H](Cc1c[nH]cn1)C(=O)N[C@@H](Cc1ccc(O)cc1)C(=O)N[C@@H](CC(C)C)C(=O)N[C@@H](CC(N)=O)C(=O)N[C@@H](Cc1c[nH]c2ccccc12)C(=O)N[C@@H](CC(C)C)C(=O)N[C@H](C(=O)N[C@@H](CCCNC(=N)N)C(=O)N[C@@H](CCC(N)=O)C(=O)N[C@@H](CCCNC(=N)N)C(=O)N[C@@H](Cc1ccccc1)C(N)=O)[C@@H](C)O` [Compound A55], the “NPY4R pEC50” value on human Y4 receptor is “inactive”. Further, the EC50 on human Y2 receptor was 1.26 nM; at human Y5 receptor, 20 nM.
As for `CC(C)C[C@H](NC(=O)[C@H](Cc1ccc(O)cc1)NC(=O)[C@H](Cc1c[nH]cn1)NC(=O)[C@H](CCCNC(=N)N)NC(=O)[C@H](C)NC(=O)[C@H](CC(=O)O)NC(=O)[C@H](C)NC(=O)[C@H](Cc1ccc(O)cc1)NC(=O)[C@H](Cc1ccc(O)cc1)NC(=O)[C@H](CCCNC(=N)N)NC(=O)[C@H](CC(N)=O)NC(=O)[C@H](Cc1c[nH]c2ccccc12)NC(=O)[C@H](CCC(=O)O)NC(=O)[C@H](CCC(=O)O)NC(=O)[C@@H]1CCCN1C(=O)[C@H](CO)NC(=O)[C@H](C)NC(=O)[C@H](CC(=O)O)NC(=O)[C@H](CCCCN)NC(=O)CNC(=O)[C@@H]1CCCN1C(=O)[C@H](C)NC(=O)[C@H](CCCCNC(=O)CC[C@H](NC(=O)CC[C@H](NC(=O)CCCCCCCCCCCCCCCCCCC(=O)O)C(=O)O)C(=O)O)NC(=O)[C@@H]1CCCN1C(=O)[C@H](CCCCN)NC(=O)[C@@H]1CCCN1)C(=O)N[C@@H](CC(N)=O)C(=O)N[C@@H](Cc1c[nH]c2ccccc12)C(=O)N[C@@H](CC(C)C)C(=O)N[C@H](C(=O)N[C@@H](CCCNC(=N)N)C(=O)N[C@@H](CCC(N)=O)C(=O)N[C@@H](CCCNC(=N)N)C(=O)N(C)[C@@H](Cc1ccc(O)cc1)C(N)=O)[C@@H](C)O` [Compound A6], the “NPY4R pEC50” value on human Y4 receptor is “inactive”. In addition, the EC50 at human Y2 receptor is 1.26 nM; at human Y5 receptor, 20 nM.
Regarding `CC(C)C[C@H](NC(=O)[C@H](Cc1ccc(O)cc1)NC(=O)[C@H](Cc1c[nH]cn1)NC(=O)[C@H](CCCNC(=N)N)NC(=O)[C@H](C)NC(=O)[C@H](CC(=O)O)NC(=O)[C@H](C)NC(=O)[C@H](Cc1ccc(O)cc1)NC(=O)[C@H](Cc1ccc(O)cc1)NC(=O)[C@H](CCCNC(=N)N)NC(=O)[C@H](CC(N)=O)NC(=O)[C@H](CC(C)C)NC(=O)[C@H](CCC(=O)O)NC(=O)[C@H](CCC(=O)O)NC(=O)[C@@H]1CCCN1C(=O)[C@H](CO)NC(=O)[C@H](C)NC(=O)[C@H](CC(=O)O)NC(=O)[C@H](CCCCN)NC(=O)[C@H](CCCCNC(=O)CC[C@H](NC(=O)CC[C@H](NC(=O)CCCCCCCCCCCCCCCCCCC(=O)O)C(=O)O)C(=O)O)NC(=O)[C@@H]1CCCN1C(=O)[C@H](C)NC(=O)[C@H](CCC(=O)O)NC(=O)[C@@H]1CCCN1C(=O)[C@H](CCCCN)NC(=O)[C@@H]1CCCN1)C(=O)N[C@@H](CC(N)=O)C(=O)N[C@@H](Cc1c[nH]c2ccccc12)C(=O)N[C@@H](CC(C)C)C(=O)N[C@H](C(=O)N[C@@H](CCCNC(=N)N)C(=O)N[C@@H](CCC(N)=O)C(=O)N[C@@H](CCCNC(=N)N)C(=O)N[C@@H](Cc1ccccc1)C(N)=O)[C@@H](C)O` [Compound A64] (H-PKPEAPK([γGlu-γGlu-C20 diacid])KDASPEELNRYYADARHYLNWLTRQRF-NH2; N-terminus assumed), on human Y4 receptor, the “NPY4R pEC50” value is “inactive”. The values for the concentration giving a half-maximal response (EC50) at human Y2 receptor and at human Y5 receptor were 2.51 nM and 12.6 nM, respectively.
Turning to `CC(C)C[C@H](NC(=O)[C@H](CC(=O)O)NC(=O)[C@H](C)NC(=O)[C@H](Cc1ccc(O)cc1)NC(=O)[C@H](Cc1ccc(O)cc1)NC(=O)[C@H](CCCNC(=N)N)NC(=O)[C@H](CC(N)=O)NC(=O)[C@H](Cc1c[nH]c2ccccc12)NC(=O)[C@H](CCC(=O)O)NC(=O)[C@H](CCC(=O)O)NC(=O)[C@@H]1CCCN1C(=O)[C@H](CO)NC(=O)[C@H](C)NC(=O)[C@H](CC(=O)O)NC(=O)[C@H](CCCCN)NC(=O)CNC(=O)[C@@H]1CCCN1C(=O)[C@H](C)NC(=O)[C@H](CCC(=O)O)NC(=O)[C@@H]1CCCN1C(=O)[C@H](CCCCN)NC(=O)[C@@H]1CCCN1)C(=O)N[C@@H](CCCCNC(=O)CC[C@H](NC(=O)CC[C@H](NC(=O)CCCCCCCCCCCCCCCCCCC(=O)O)C(=O)O)C(=O)O)C(=O)N[C@@H](Cc1c[nH]cn1)C(=O)N[C@@H](Cc1ccc(O)cc1)C(=O)N[C@@H](CC(C)C)C(=O)N[C@@H](CC(N)=O)C(=O)N[C@@H](Cc1c[nH]c2ccccc12)C(=O)N[C@@H](CC(C)C)C(=O)N[C@H](C(=O)N[C@@H](CCCNC(=N)N)C(=O)N[C@@H](CCC(N)=O)C(=O)N[C@@H](CCCNC(=N)N)C(=O)N[C@@H](Cc1ccccc1)C(N)=O)[C@@H](C)O` [Compound A53], the “NPY4R pEC50” value on human Y4 receptor was “inactive”. Moreover, the EC50 on human Y2 receptor is 2 nM; at human Y5 receptor it was 50.1 nM.
